Results: PubChem BioAssay AID1159559 (GlaxoSmithKline (GSK), 2015)
Active and inactive are the calls of the source.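 Rule for the calls: active = compounds whose IC50 against parasite growth in infected mouse cells is below 50000 nM; inactive = the rest.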

What follows are compounds tested on T. cruzi Tulahuen in NIH-3T3, beta-gal fluorescence, 4 d (assay: T. cruzi intracellular growth inhibition, cell-based (AID 1159559)).

SMILES	IC50
CC1=NN(C(=O)CCn2cnc([N+](=O)[O-])n2)C(O)(C(F)(F)F)C1 (stereo unspecified)	2000 nM
CS(=O)(=O)c1ccc(Nc2nccc(Nc3n[nH]c4ccc(F)cc34)n2)c(F)c1	7900 nM
CN(C)S(=O)(=O)c1cccc(C(=O)Nc2nc(-c3ccccn3)cs2)c1	1300 nM
O=C(Cn1cnc2cc([N+](=O)[O-])ccc2c1=O)NCCc1ccc(Cl)cc1Cl	630 nM
Cc1ccc(C)c(-n2nnnc2Sc2nc([N+](=O)[O-])nn2C)c1	500 nM
Cc1cc(C#N)c([N+](=O)[O-])cc1Br	200 nM
CN(CC1CCCO1)S(=O)(=O)c1ccc(C(=O)Nc2nc(-c3ccccn3)cs2)cc1 (stereo unspecified)	1600 nM
C=CCOCC1Cn2nc([N+](=O)[O-])nc2O1 (stereo unspecified)	500 nM
CCCc1cc(C(=O)Nc2ncc(-c3cccc(Br)c3)n2C)n[nH]1	2500 nM
O=C(Nc1nc(-c2ccccn2)cs1)C1CCc2ccccc2C1 (stereo unspecified)	2000 nM
O=C(NCC1CCCCN1C(=O)c1cccc2ccccc12)c1ccccc1 (stereo unspecified)	6300 nM
O=C(N[C@H](CO)c1ccccc1)c1ccc(-c2c[nH]c3nccc(C(F)(F)F)c23)s1	7900 nM
Cc1ccccc1CNc1cc(C2CC2)nc(-c2nccn2C)n1	790 nM
Nc1nc(-c2ccccc2)cc(-c2nc3ncccc3[nH]2)n1	3200 nM
Cc1ccc(NC(=O)c2ccc(Cl)c(NC(=O)c3ccc([N+](=O)[O-])cc3)c2)cc1	630 nM
COc1ccc(OC)c(NC(=O)c2ccc([N+](=O)[O-])o2)c1	3200 nM
Cc1ccccc1OCC(=O)N1CCCN(c2cccnn2)CC1	320 nM
O=C1CN(C(=O)c2cccc(Nc3ncc(-c4ccc5c(c4)OCO5)cn3)c2)CCN1	1600 nM
CC(C)S(=O)(=O)c1ccc(-c2cnc(N)c3cc(-c4ccnc(N)n4)ccc23)cc1	790 nM
COc1cccc(S(=O)(=O)Nc2ccc3c(c2)CC(N2CCC(NC(=O)C4CC4)CC2)C3)c1 (stereo unspecified)	40000 nM
Cc1ccc(NC(=O)C(C)n2nc([N+](=O)[O-])c(Br)c2C)cc1Cl (stereo unspecified)	2500 nM
CC(=Cc1ccccc1)CN1CCC(=O)N(Cc2cccnc2)CC1	250 nM
Cc1ccc(NC(=O)c2ccnc(N3CCCC3)c2)cc1-c1ccsc1C(N)=O	13000 nM

SMILES	IC50
N#Cc1ccc(Br)cc1[N+](=O)[O-]	250 nM
Cc1ccc(S(=O)(=O)Nc2ccc(CN3CCN(C(=O)c4cccc(C)c4)CC3)cc2)cc1	500 nM
O=C(NNC(=O)c1ccccn1)c1ccc(-c2ccccc2)cc1	1600 nM
COc1ccc(NS(=O)(=O)c2cc(NC(=O)c3ccc([N+](=O)[O-])s3)ccc2OC)cc1	63 nM
Cc1[nH]nc(C(F)(F)F)c1NC(=O)CCn1cc(Cl)c([N+](=O)[O-])n1	7900 nM
COC(=O)c1ccc(-c2cnc3ccc(NCc4ccccn4)nn23)cc1	7900 nM
CNC(=O)C1Cc2ccccc2N1C(=O)Cc1ccccc1 (stereo unspecified)	> 50000 nM (inactive)
COc1ccc2ncc(Cl)c(CCN3CC[C@H](NCc4cc5c(cn4)OCS5)[C@@H](O)C3)c2n1	130 nM
CC(C)COC(=O)Nc1ccc(N2CCC(CNS(=O)(=O)c3ccccc3)CC2)c(F)c1	10000 nM
COc1ccc(C(=O)Nc2ccc(NC(=O)CO)cc2)cc1	> 50000 nM (inactive)
COc1ccc(C(=O)[C@H]2C[C@@H]2CN(Cc2ccccn2)Cc2ccccn2)cc1	1600 nM
c1ccc(Nc2nc3ccccc3[nH]2)nc1	7900 nM
O=C(CC1(O)C(=O)N(Cc2cccs2)c2ccc(Br)cc21)c1cccnc1 (stereo unspecified)	5000 nM
N#CN1CC[C@@H](NC(=O)Nc2ccccc2Oc2ccccc2)C1	5000 nM
CC(=O)Nc1ccc(-c2noc(CC3CCCN(Cc4cccc(F)c4C)C3)n2)cc1 (stereo unspecified)	1000 nM
Cc1nc2c(-c3n[nH]c(-c4ccccc4N)n3)cccn2c1C	4000 nM
O=C1CSC(c2cccnc2)N1c1ccc(Cl)cc1Cl (stereo unspecified)	63 nM
Cc1[nH]n2c(=O)c3c(nc2c1-c1ccc(Br)cc1)CCCC3	1000 nM
O=C(NCC1CCCCC1)c1cc(=O)c2ccccc2o1	400 nM
CCOc1ccc(CN(C)Cc2nc(N)nc(Nc3ccc(C)cc3)n2)cc1	6300 nM
CC(=O)Nc1cccc(Nc2ncnc3nc[nH]c23)c1	> 50000 nM (inactive)
O=C(NCCCn1cnc2ccccc21)c1ccc(NC(=O)c2ccco2)cc1	4000 nM
Nc1cc(-c2ccc3ncnc(N4CCOCC4)c3c2)cnc1N	1600 nM

SMILES	IC50
COc1ccnc2[nH]cc(-c3cc(C(=O)N[C@H](CO)c4ccccc4)co3)c12	1300 nM
CN(C)Cc1ccc(-c2ccc(S(=O)(=O)NCC3CCCO3)c(F)c2)cc1 (stereo unspecified)	1300 nM
Cc1ccnc(NS(=O)(=O)c2ccc(NC(=O)c3ccc([N+](=O)[O-])s3)cc2)n1	2000 nM
O=C(Nc1nc(-c2ccccn2)cs1)c1ccccc1-n1cnnn1	3200 nM
CCCCNc1nccc(-c2c(-c3ccc(F)cc3)nn3c(N4CCOCC4)cccc23)n1	400 nM
c1ccc2c(CCOc3nccnc3-c3ccncc3)c[nH]c2c1	130 nM
NS(=O)(=O)c1ccc(Nc2ncc3cccc(OC4CCNCC4)c3n2)cc1	1600 nM
COc1ccc(C2=NCC(CSc3nnc(-c4ccc5c(c4)OCO5)o3)S2)cc1 (stereo unspecified)	2500 nM
COc1ccc2ncc(=O)n(CCN3CC[C@H](NCc4ncc(Cl)c5[nH]ncc45)[C@H](O)C3)c2n1	4000 nM
CC(C)(C)Nc1nc(Nc2ccc3c(c2)CS(=O)(=O)C3)nc2[nH]ccc12	1000 nM
COc1ccc(Nc2nc(-c3ccccn3)cs2)c(OC)c1	4000 nM
CCOc1ccccc1C(=O)Nc1nnc(-c2ccc3c(c2)OCO3)s1	630 nM
CCC(CC)C(=O)Nc1cccc(C(=O)Nc2nnc(C3CCCCC3)s2)c1	10000 nM
N#Cc1ccc(S(=O)(=O)N2CCC3(CCN(c4ccccc4)C3=O)CC2)cc1	1300 nM
Cc1nn(C2CCS(=O)(=O)C2)c(C)c1CN(C)C(=O)C=Cc1sc2ccccc2c1Cl (stereo unspecified)	630 nM
C=CCN(Cc1cccs1)C(=O)CSc1nnc(-c2ccc3c(c2)OCO3)o1	6300 nM
COc1cccc(-c2c(C)nn(-c3nc(N)nc(-c4ccccn4)n3)c2N)c1	2500 nM
O=C(CC1(O)C(=O)N(Cc2ccccc2)c2ccc(Br)cc21)c1cccnc1 (stereo unspecified)	5000 nM
O=C(NCc1ccc(-n2cccc2)cc1)c1nc(Cn2ccc([N+](=O)[O-])n2)no1	2500 nM
Cc1ccc(Nc2nc(C3CCCN3Cc3ccn[nH]3)cs2)nc1 (stereo unspecified)	790 nM
COc1cccc(CCNC(=O)C(c2cn[nH]c2)N2CCN(c3ccc(Cl)cc3)CC2)c1 (stereo unspecified)	20 nM
O=C(N1CCc2ccccc2CC1)C1(C(=O)N2CCC(n3c(=O)[nH]c4ncccc43)CC2)CC1	630 nM
OC1CCC(Nc2nccc(-c3sc(C4CCOCC4)nc3-c3ccc(F)c(F)c3)n2)CC1 (stereo unspecified)	320 nM

SMILES	IC50
COc1ccc(C(C)N(C)c2ncc3c(N)nc(N)nc3n2)cc1F (stereo unspecified)	79 nM
Cc1c(Nc2cc(C3CC3)[nH]n2)ccc(C#N)c1Cl	2500 nM
CN(Cc1cc2ccccc2s1)c1ncc2c(N)nc(N)nc2n1	2000 nM
Cc1cc(C)n(-c2nc(NC(C)(C)C)nc(N3CCOCC3)n2)n1	5000 nM
CN(C)Cc1cccc(Nc2nccc(-c3ccc(NCCN)c(C#N)c3)n2)c1	1000 nM
Cc1ncsc1CNc1cnc(-c2ccc3c(c2)OCCO3)c(-c2cnn(C)c2)c1	13000 nM
CC(C)c1nn(-c2nc(N)nc(-c3ccccn3)n2)c(N)c1C1CCCCC1	2000 nM
CCCNC(=O)Nc1cccc(-c2nc3ncccc3o2)c1	2500 nM
O=c1oc2ccccc2n1C1CCN(Cc2ccccc2-c2cccnc2)CC1	500 nM
COc1ccc(CNc2cc(C3CC3)nc(-c3nccn3C)n2)cc1	1000 nM
Cc1cc(C)nc(N2CCC(N(Cc3cccnc3)C(=O)c3cccc(C#N)c3)CC2)n1	320 nM
CCn1nccc1CN(C)C(=O)C=Cc1ccc(Cl)cc1	200 nM
CN(C)CCN(C)Cc1ccc(F)cc1NS(=O)(=O)c1ccc(Cl)c(Cl)c1	1600 nM
O=C(CSc1ccc(-c2ccccn2)nn1)Nc1ccc(Cl)cc1	2500 nM
CN1CCN(c2nc(-c3ccc(Cl)cc3)c3c(N)n(C)nc3n2)CC1	2000 nM
CCCn1c(NC(=O)Cc2ccc(Cl)cc2)nc2ccccc21	630 nM
O=C(c1cccc(Nc2ncc(-c3ccc4c(c3)OCO4)cn2)c1)N1CCSC1	2500 nM
Cc1nn2c(NCCCO)c3c(nc2c1-c1cccs1)CCC3	16000 nM
COCc1cc(Nc2ccccc2)nc(-c2ccccn2)n1	5000 nM
CN(C)c1ccc(-c2cc3nccnc3c(OC[C@H]3CCCNC3)n2)cn1	1600 nM
CNS(=O)(=O)c1ccccc1Nc1nc(Nc2cc(C)nn2C)ncc1Cl	400 nM
Cc1cccc(Nc2nc(-c3ccccn3)cs2)n1	630 nM
Nc1nc(-c2ccccn2)nc(N)c1Cc1c(F)cccc1Cl	1600 nM

SMILES	IC50
O=C(CSc1nnc(-c2ccc3c(c2)OCO3)o1)N(Cc1ccco1)CC(F)(F)F	10000 nM
Cc1ccc2nc(N(Cc3cccnc3)C(=O)CCc3ccccc3)sc2c1	40 nM
CCOC(=O)c1cn[nH]c1S(=O)(=O)N1CCC1c1ccccc1 (stereo unspecified)	> 50000 nM (inactive)
CCN(Cc1nc2ccc(C(=O)N3CCN(c4ncccn4)CC3)cc2[nH]1)C1CCCc2cccnc21 (stereo unspecified)	1300 nM
Cc1c([N+](=O)[O-])c(C(=O)Nc2sc3c(c2C#N)CCC(C)C3)nn1C (stereo unspecified)	2500 nM
Cc1c(C#N)c([N+](=O)[O-])nn1Cc1cccc(Cl)c1Cl	200 nM
CCCc1cc(N)nc(-c2cc(CCC)cc(N)n2)c1	2000 nM
O=C(CN1CCC2(O)CCCCC2C1c1ccc2c(c1)OCO2)Nc1ccc(Cl)cc1Cl (stereo unspecified)	13000 nM
Fc1ccccc1N1C[C@H]2CCN(c3cccnc3)C[C@H]2C1	200 nM
COc1ccc2ncc(=O)n(CCN3CCC(NCc4ccc(-c5cccs5)cc4)CC3)c2n1	2000 nM
Cn1nc(-c2ccc(NC(=O)Cc3ccccc3Cl)cc2)c2c(N)ncnc21	2000 nM
CCOc1ccc(NC(=O)C=Cc2ccc(CC)o2)cc1	2000 nM
COc1cnc2ccc(=O)n(CCN3CCC(NC(=O)c4ccc(Cl)cc4)CC3)c2c1	130 nM
c1ccc2sc(Nc3nc4ncccc4[nH]3)nc2c1	1000 nM
CNc1c(C(N)=O)c(-c2ccc3scnc3c2)nn1CC(F)(F)F	130 nM
CN1CCCN(C(=O)c2ccc(N3CCCC3)cc2Cl)CC1	790 nM
Cc1ccccc1NS(=O)(=O)c1ccc2[nH]cc(C(=O)NC3CCCCC3)c(=O)c2c1	10000 nM
CC(CCc1ccccc1)NC(=O)CN(Cc1ccccn1)Cc1ccccn1 (stereo unspecified)	2500 nM
Clc1ccc(CN2CCN(C3=NCCN3)CC2)cc1Cl	1300 nM
